The values below come from US12358915B2, “METTL3 inhibitory compounds” (STORM THERAPEUTICS LTD., priority 2019, dated 2025).

As usually defined, the IC50 is the concentration that gives 50% inhibition.

Molecules are shown by their SMILES.

For this assay, the target named is T1, METTL3/14 (Homo sapiens, UniProt Q86U44).
T1 construct: The enzyme used was full-length his-tagged METTL3; His; made in house
T1 sequence (Q86U44 whole entry): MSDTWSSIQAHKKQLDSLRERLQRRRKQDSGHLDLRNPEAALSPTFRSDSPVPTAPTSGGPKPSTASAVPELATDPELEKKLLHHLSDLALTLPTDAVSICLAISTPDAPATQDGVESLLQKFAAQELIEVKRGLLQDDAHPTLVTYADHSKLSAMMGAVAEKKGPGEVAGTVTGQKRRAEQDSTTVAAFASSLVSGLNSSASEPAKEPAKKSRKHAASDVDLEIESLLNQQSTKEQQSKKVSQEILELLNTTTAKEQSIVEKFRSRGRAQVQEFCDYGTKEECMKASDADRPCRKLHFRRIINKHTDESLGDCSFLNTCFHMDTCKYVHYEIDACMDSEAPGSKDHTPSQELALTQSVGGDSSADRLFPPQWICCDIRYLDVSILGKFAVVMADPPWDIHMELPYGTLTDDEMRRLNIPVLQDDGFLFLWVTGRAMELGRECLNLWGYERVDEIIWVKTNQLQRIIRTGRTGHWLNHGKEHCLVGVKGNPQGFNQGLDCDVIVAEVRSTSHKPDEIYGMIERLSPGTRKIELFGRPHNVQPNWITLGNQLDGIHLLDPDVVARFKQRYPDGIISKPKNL
T1 sequence (Q9HCE5 whole entry partner): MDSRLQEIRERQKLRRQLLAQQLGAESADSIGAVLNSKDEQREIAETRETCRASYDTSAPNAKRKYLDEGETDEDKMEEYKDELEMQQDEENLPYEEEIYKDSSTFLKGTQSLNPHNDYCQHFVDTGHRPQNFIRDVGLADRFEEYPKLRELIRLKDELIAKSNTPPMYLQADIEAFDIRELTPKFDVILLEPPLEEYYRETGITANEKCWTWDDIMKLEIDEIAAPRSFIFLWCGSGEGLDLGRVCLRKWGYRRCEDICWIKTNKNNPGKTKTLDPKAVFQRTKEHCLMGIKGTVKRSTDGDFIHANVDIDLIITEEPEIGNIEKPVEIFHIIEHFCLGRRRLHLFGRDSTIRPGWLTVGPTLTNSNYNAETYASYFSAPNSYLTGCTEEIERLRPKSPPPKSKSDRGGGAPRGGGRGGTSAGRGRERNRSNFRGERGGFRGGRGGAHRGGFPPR
Nature of the assay: METTL3/14 methyltransferase assay (METTL3_14 RFMS, RapidFire mass spectrometry).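 Further: recombinant His-tagged METTL3 with FLAG-tagged METTL14 from baculovirus, SAH product quantified by mass spectrometry against isotope-labelled internal standards, 60 min at room temperature, scaled between no-RNA and DMSO-only wells.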 Type of assay: biochemical. Particulars: 5 nM METTL3/14, 0.2 μM RNA substrate, 0.5 μM SAM; lower limit of the assay IC50=5 nM; Compounds 63-265; read-out: METTL3_14 RFMS IC50.
`O=C(NCc1cn2cc(CN3CCCC(C(F)(F)F)C3)ccc2n1)c1cc(=O)n2ccccc2n1` (stereo not shown) [Compound 142, 4-oxo-N-[(6-{[3-(trifluoromethyl)piperidin-1-yl]methyl}imidazo [1,2-a]pyridin-2-yl)methyl]-4H-pyrido[1,2-a] pyrimidine-2-carboxamide]: the IC50 was found to be 48.8 nM. For the compound `CC1(C)CCC(CNCc2ccc3nc(CNC(=O)c4cc(=O)n5ccccc5n4)cn3c2)O1` (stereo not shown) [Compound 143, N-{[6-({[(5,5-dimethyloxolan-2-yl)methyl]amino}methyl)imidazo[1,2-a]pyridin-2-yl]methyl}-4-oxo-4H-pyrido[1,2-a] pyrimidine-2-carboxamide], the IC50 worked out at 136 nM. The same measure for `O=C(NCc1cn2cc(CN3CCC(F)CC3)ccc2n1)c1cc(=O)n2ccccc2n1` [Compound 144, N-({6-[(4-fluoropiperidin-1-yl)methyl]imidazo[1,2-a]pyridin-2-yl}methyl)-4-oxo-4H-pyrido[1,2-a]pyrimidine-2-carboxamide]: 59.7 nM.

Consider `CC1(NCc2ccc3nc(CNC(=O)c4cc(=O)n5ccccc5n4)cn3c2)CCCCC1` [Compound 146, N-[(6-{[(1-methylcyclohexyl)amino]methyl}imidazo[1,2-a]pyridin-2-yl)methyl]-4-oxo-4H-pyrido[1,2-a]pyrimidine-2-carboxamide], for which the half-maximal inhibitory concentration (IC50) came to 25.1 nM. In the case of `CC1(C)COC(CNCc2ccc3nc(CNC(=O)c4cc(=O)n5ccccc5n4)cn3c2)C1` (stereo not shown) [Compound 147, N-{[6-({[(4,4-dimethyloxolan-2-yl)methyl]amino}methyl)imidazo[1,2-a]pyridin-2-yl]methyl}-4-oxo-4H-pyrido[1,2-a] pyrimidine-2-carboxamide], the IC50 came out at 224 nM. Regarding `CC1(NCc2ccc3nc(CNC(=O)c4cc(=O)n5ccccc5n4)cn3c2)CCCC1` [Compound 148, N-[(6-{[(1-methylcyclopentyl)amino]methyl}imidazo[1,2-a]pyridin-2-yl)methyl]-4-oxo-4H-pyrido [1,2-a]pyrimidine-2-carboxamide], the IC50 was found to be 28.5 nM.

For the compound `CCCNCc1ccc2nc(CNC(=O)c3cc(=O)n4ccccc4n3)cn2c1` [Compound 149, 4-oxo-N-({6-[(propylamino)methyl]imidazo [1,2-a]pyridin-2-yl}methyl)-4H-pyrido[1,2-a] pyrimidine-2-carboxamide], the concentration for half-maximal inhibition (IC50) was determined as 40.2 nM. `CC1(C)CCOC1CNCc1ccc2nc(CNC(=O)c3cc(=O)n4ccccc4n3)cn2c1` (stereo not shown) [Compound 150, N-{[6-({[(3,3-dimethyloxolan-2-yl)methyl]amino}methyl)imidazo[1,2-a]pyridin-2-yl]methyl}-4-oxo-4H-pyrido[1,2-a] pyrimidine-2-carboxamide]: the IC50 came out at 29.9 nM. For `CC(C)CNCc1ccc2nc(CNC(=O)c3cc(=O)n4ccccc4n3)cn2c1` [Compound 151, N-[(6-{[(2-methylpropyl)amino]methyl}imidazo[1,2-a]pyridin-2-yl)methyl]-4-oxo-4H-pyrido[1,2-a] pyrimidine-2-carboxamide] the value was 16.3 nM. Turning to `CC(C)(C)OCCNCc1ccc2nc(CNC(=O)c3cc(=O)n4ccccc4n3)cn2c1` [Compound 152, N-{[6-({[2-(tert-butoxy)ethyl]amino}methyl)imidazo[1,2-a]pyridin-2-yl]methyl}-4-oxo-4H-pyrido[1,2-a] pyrimidine-2-carboxamide], the IC50 stood at 104 nM. The same measure for `O=C(NCc1cn2cc(CNc3ccc(Cl)cc3)ccc2n1)c1cc(=O)n2ccccc2n1` [Compound 153, N-[(6-{[(4-chlorophenyl)amino]methyl}imidazo[1,2-a]pyridin-2-yl)methyl]-4-oxo-4H-pyrido[1,2-a] pyrimidine-2-carboxamide]: 1580 nM; for `O=C(NCc1cn2cc(CNCCC3CCCCO3)ccc2n1)c1cc(=O)n2ccccc2n1` (stereo not shown) [Compound 154, N-{[6-({[2-(oxan-2-yl)ethyl]amino}methyl)imidazo [1,2-a]pyridin-2-yl]methyl}-4-oxo-4H-pyrido[1,2-a] pyrimidine-2-carboxamide]: 1180 nM; for `O=C(NCc1cn2cc(CN3CCC(Cc4ccccc4)CC3)ccc2n1)c1cc(=O)n2ccccc2n1` [Compound 155, N-({6-[(4-benzylpiperidin-1-yl)methyl]imidazo[1,2-a]pyridin-2-yl}methyl)-4-oxo-4H-pyrido [1,2-a]pyrimidine-2-carboxamide]: 177 nM. The same measure for `O=C(NCc1cn2cc(CN3CCC(Oc4ccccc4)CC3)ccc2n1)c1cc(=O)n2ccccc2n1` [Compound 156, 4-oxo-N-({6-[(4-phenoxypiperidin-1-yl)methyl]imidazo[1,2-a]pyridin-2-yl}methyl)-4H-pyrido[1,2-a] pyrimidine-2-carboxamide]: 61.7 nM. The same measure for `O=C(NCc1cn2cc(CNCC3CC3(F)F)ccc2n1)c1cc(=O)n2ccccc2n1` (stereo not shown) [Compound 157, N-{[6-({[(2,2-difluoro-cyclopropyl)methyl]amino}methyl)imidazo [1,2-a]pyridin-2-yl]methyl}-4-oxo-4H-pyrido [1,2-a]pyrimidine-2-carboxamide]: 42.9 nM. Turning to `O=C(NCc1cn2cc(CNc3cccc(Cl)c3)ccc2n1)c1cc(=O)n2ccccc2n1` [Compound 158, N-[(6-{[(3-chlorophenyl)amino]methyl}imidazo[1,2-a]pyridin-2-yl)methyl]-4-oxo-4H-pyrido[1,2-a]pyrimidine-2-carboxamide], the IC50 was found to be 3810 nM. On to `CC1(C)CC1CNCc1ccc2nc(CNC(=O)c3cc(=O)n4ccccc4n3)cn2c1` (stereo not shown) [Compound 159, N-{[6-({[(2,2-dimethyl-cyclopropyl)methyl]amino}methyl)imidazo [1,2-a]pyridin-2-yl]methyl}-4-oxo-4H-pyrido [1,2-a]pyrimidine-2-carboxamide], for which the half-inhibitory concentration (IC50) worked out at 19.5 nM.

Take `CC1(CNCc2ccc3nc(CNC(=O)c4cc(=O)n5ccccc5n4)cn3c2)CCCO1` (stereo not shown) [Compound 160, N-{[6-({[(2-methyloxolan-2-yl)methyl]amino}methyl)imidazo [1,2-a]pyridin-2-yl]methyl}-4-oxo-4H-pyrido [1,2-a]pyrimidine-2-carboxamide]: the IC50 was found to be 93.2 nM. `CC(C)(C)C1CCN(Cc2ccc3nc(CNC(=O)c4cc(=O)n5ccccc5n4)cn3c2)CC1` [Compound 161, N-({6-[(4-tert-butylpiperidin-1-yl)methyl]imidazo[1,2-a]pyridin-2-yl}methyl)-4-oxo-4H-pyrido[1,2-a]pyrimidine-2-carboxamide]: the concentration for half-maximal inhibition (IC50) was determined as 99.1 nM. The same measure for `CC(C)(C)C1CCC(NCc2ccc3nc(CNC(=O)c4cc(=O)n5ccccc5n4)cn3c2)CC1` (stereo not shown) [Compound 162, N-[(6-{[(4-tert-butylcyclohexyl)amino]methyl}imidazo[1,2-a]pyridin-2-yl)methyl]-4-oxo-4H-pyrido[1,2-a] pyrimidine-2-carboxamide]: 225 nM. For `O=C(NCc1cn2cc(CNCCC3CCCC3)ccc2n1)c1cc(=O)n2ccccc2n1` [Compound 163, N-[(6-{[(2-cyclopentylethyl)amino]methyl}imidazo[1,2-a]pyridin-2-yl)methyl]-4-oxo-4H-pyrido[1,2-a]pyrimidine-2-carboxamide] the value was 80.1 nM. As for `CC(C)(C)C(=O)N1CCN(Cc2ccc3nc(CNC(=O)c4cc(=O)n5ccccc5n4)cn3c2)CC1` [Compound 166, N-[(6-{[4-(2,2-dimethylpropanoyl)piperazin-1-yl]methyl}imidazo[1,2-a]pyridin-2-yl)methyl]-4-oxo-4H-pyrido [1,2-a]pyrimidine-2-carboxamide], the IC50 amounted to 10500 nM.
